According to paper PMC6934184, “Selective DNA-PKcs inhibition extends the therapeutic index of localized radiotherapy and chemotherapy” (The Journal of Clinical Investigation, 2019):

Target: T1, CSNK1D (CK1 delta) (Homo sapiens, UniProt P48730)
T1 construct: purchased Thermo Fisher Scientific (Life Technologies) SelectScreen
Assay: SelectScreen Z'LYTE
Assay type: biochemical
In short: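 Compound tested in SelectScreen activity assays, Z'LYTE for CSF1R, CDK1/cyclin B and MAP2K6 and Adapta for CAMK1. ATP for CAMK1 was listed as 10, and Km app was used for CSF1R. Results are expressed in percent.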

T1 sequence (P48730 whole entry): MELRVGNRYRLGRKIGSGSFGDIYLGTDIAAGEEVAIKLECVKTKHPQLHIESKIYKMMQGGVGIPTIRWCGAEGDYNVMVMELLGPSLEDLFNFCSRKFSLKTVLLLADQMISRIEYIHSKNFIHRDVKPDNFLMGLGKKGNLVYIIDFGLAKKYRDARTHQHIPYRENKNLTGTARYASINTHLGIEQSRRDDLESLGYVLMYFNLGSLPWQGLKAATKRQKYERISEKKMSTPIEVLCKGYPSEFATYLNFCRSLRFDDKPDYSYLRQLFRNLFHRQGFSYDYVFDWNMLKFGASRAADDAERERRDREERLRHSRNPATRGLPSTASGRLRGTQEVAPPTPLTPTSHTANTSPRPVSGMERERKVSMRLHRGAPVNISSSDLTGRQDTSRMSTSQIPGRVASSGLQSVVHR

## CN(C(=O)CN1CCOCC1)c1ccc2sc3c(-c4cccc5c(=O)cc(N6CC7CCC(C6)O7)oc45)cccc3c2c1 [NU5455]
  inhibition at 1 µM: 2.6%
